Assay results from patent US9522914B2, “Azole derivative” (TAISHO PHARMACEUTICAL CO., LTD, priority 2011, dated 2016).

Target: Human V1b receptor (Homo sapiens (Human), UniProt P47901)
Experiment: Binding Test for V1b Receptor ([3H]AVP, crude membrane preparation of 293FT cells)
Settings: inhibition of [3H]AVP binding (0.4 to 1 nmol/L), room temperature, 60 minutes
Protocol: Binding Test for V1b Receptor
Human V1b receptor was transiently expressed in 293FT cells (Invitrogen). The cells were collected and then homogenated in a 15 mmol/L tris-hydrochloric acid buffer (pH 7.4 and containing 2 mmol/L magnesium chloride, 0.3 mmol/L ethylenediaminetetracetic acid, and 1 mmol/L glycol ether diaminetetraacetic acid). The resulting homogenate was centrifuged at 50,000×g at 4° C. for 20 minutes. The precipitate was resuspended in a 75 mmol/L tris-hydrochloric acid buffer (pH 7.4 and containing 12.5 mmol/L magnesium chloride, 0.3 mmol/L ethylenediaminetetracetic acid, 1 mmol/L glycol ether diaminetetraacetic acid, and 250 mmol/L sucrose) to give a crude membrane preparation, which was stored at −80° C. until the binding test was initiated. In the binding test, the crude membrane preparation was diluted with a 50 mmol/L tris-hydrochloric acid buffer (pH 7.4 and containing 10 mmol/L magnesium chloride and 0.1% bovine serum albumin) and mixed with each test compound and [^3H]AVP (final concentration: 0.4 to 1 nmol/L), followed by incubation at room temperature for 60 minutes. The test compound was serially diluted with DMSO so that it would have final concentrations of 0.01 nmol/L to 1 μmol/L at the time of mixing. After the incubation, the mixture was suction filtered through a GF/C filter that was preliminarily impregnated with 0.3% polyethyleneimine. The GF/C filter was dried and after adding a scintillator, the residual radioactivity on the filter was measured using TopCount (PerkinElmer Inc.). The radioactivity in the presence of unlabeled AVP at […] was defined as 0%, and the radioactivity in the absence of unlabeled AVP was defined as 100%. A dose-response curve was plotted from radio activities in the presence of a test compound at various concentrations, and the 50% inhibitory concentration (IC50 value) of the test compound was calculated.

Human V1b receptor, sequence (P47901 whole entry): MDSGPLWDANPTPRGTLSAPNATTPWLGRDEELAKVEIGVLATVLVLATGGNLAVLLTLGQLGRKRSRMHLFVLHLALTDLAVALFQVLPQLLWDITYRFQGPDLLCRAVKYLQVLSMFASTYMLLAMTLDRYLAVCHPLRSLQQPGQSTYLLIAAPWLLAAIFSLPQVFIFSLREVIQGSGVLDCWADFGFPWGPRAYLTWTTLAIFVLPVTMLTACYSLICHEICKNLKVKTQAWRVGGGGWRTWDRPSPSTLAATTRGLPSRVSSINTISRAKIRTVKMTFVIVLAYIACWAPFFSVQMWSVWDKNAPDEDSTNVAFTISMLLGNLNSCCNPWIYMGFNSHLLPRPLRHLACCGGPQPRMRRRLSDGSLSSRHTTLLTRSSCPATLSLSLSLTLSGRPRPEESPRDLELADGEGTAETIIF

COc1cc(-c2nc(-c3ccc(CCN4CCCC(C#N)C4)cc3)cn2CC(=O)NC(C)C)ccc1F (stereo not shown) [Example A-13, 2-[4-{4-[2-(3-cyanopiperidin-1-yl)ethyl]phenyl}-2-(4-fluoro-3-methoxyphenyl)-1H-imidazol-1-yl]-N-(propan-2-yl)acetamide]
IC50: 10 to 100 nM

CC(C)NC(=O)Cn1nc(-c2ccc(CCN3CCOCC3)cn2)nc1-c1cccc(Cl)c1 [Example B-10, 2-[5-(3-chlorophenyl)-3-{5-[2-(morpholin-4-yl)ethyl]pyridin-2-yl}-1H-1,2,4-triazol-1-yl]-N-(propan-2-yl)acetamide]
IC50: 12 nM

COc1cc(-n2nc(CC(=O)NC(C)C)n(-c3cccc(Cl)c3)c2=O)ccc1CCN1CCOCC1 [Example D-22, 2-[4-(3-chlorophenyl)-1-{3-methoxy-4-[2-(morpholin-4-yl)ethyl]phenyl}-5-oxo-4,5-dihydro-1H-1,2,4-triazol-3-yl]-N-(propan-2-yl)acetamide]
IC50: 12 nM

COc1cccc(-c2nc(-c3ccc(CCN4CCOCC4)cn3)nn2CC(=O)NC(C)(C)C)c1 [Example B-14, N-tert-butyl-2-[5-(3-methoxyphenyl)-3-{5-[2-(morpholin-4-yl)ethyl]pyridin-2-yl}-1H-1,2,4-triazol-1-yl]acetamide]
IC50: 6.6 nM

CC(C)NC(=O)Cc1nn(-c2ccc(CC(C)N3CCOCC3)cc2)c(=O)n1-c1cccc(Cl)c1 [Example D-17, 2-[4-(3-chlorophenyl)-1-{4-[2-(morpholin-4-yl)propyl]phenyl}-5-oxo-4,5-dihydro-1H-1,2,4-triazol-3-yl]-N-(propan-2-yl)acetamide]
IC50: 3.9 nM

COc1cc(-n2c(CC(=O)NC(C)(C)C)nn(-c3ccc(CCN4CCOCC4)cc3)c2=O)ccc1F [Example D-05, N-tert-butyl-2-[4-(4-fluoro-3-methoxyphenyl)-1-{4-[2-(morpholin-4-yl)ethyl]phenyl}-5-oxo-4,5-dihydro-1H-1,2,4-triazol-3-yl]acetamide]
IC50: 2.5 nM

CC(C)NC(=O)Cn1c(-c2cccc(Cl)c2)cn(-c2ccc(CCN3CCOCC3)cc2)c1=O [Example C-19, 2-[5-(3-chlorophenyl)-3-{4-[2-(morpholin-4-yl)ethyl]phenyl}-2-oxo-2,3-dihydro-1H-imidazol-1-yl]-N-(propan-2-yl)acetamide]
IC50: 2.2 nM

COc1cccc(-c2nc(-c3ccc(CCN4CCC(F)CC4)cc3)nn2CC(=O)NC(C)C)c1 [Example B-39, 2-[3-{4-[2-(4-fluoropiperidin-1-yl)ethyl]phenyl}-5-(3-methoxyphenyl)-1H-1,2,4-triazol-1-yl]-N-(propan-2-yl)acetamide]
IC50: 10 to 100 nM

COc1cccc(-c2nc(-c3ccc(CCN4C5CCC4COC5)cc3)nn2CC(=O)NC(C)C)c1 [Example B-17, 2-[5-(3-methoxyphenyl)-3-{4-[2-(3-oxa-8-azabicyclo[3.2.1]oct-8-yl)ethyl]phenyl}-1H-1,2,4-triazol-1-yl]-N-(propan-2-yl)acetamide]
IC50: 1.4 nM

COc1cc(-c2nc(-c3ccc(CCN4C5CCC4CC(O)C5)cc3)cn2CC(=O)NC(C)C)ccc1F (stereo not shown) [Example A-15, 2-[2-(4-fluoro-3-methoxyphenyl)-4-{4-[2-(3-hydroxy-8-azabicyclo[3.2.1]oct-8-yl)ethyl]phenyl}-1H-imidazol-1-yl]-N-(propan-2-yl)acetamide]
IC50: 2.4 nM

COc1cccc(-c2nc(-c3ccc(CCN4CCOCC4)cn3)nn2CC(=O)NC(C)C)c1 [Example B-15, 2-[5-(3-methoxyphenyl)-3-{5-[2-(morpholin-4-yl)ethyl]pyridin-2-yl}-1H-1,2,4-triazol-1-yl]-N-(propan-2-yl)acetamide]
IC50: 31 nM

COc1cccc(-c2nc(-c3ccc(CCN4CCOCC4)cc3)nn2CC(=O)NC(C)C)c1 [Example B-16, 2-[5-(3-methoxyphenyl)-3-{4-[2-(morpholin-4-yl)ethyl]phenyl}-1H-1,2,4-triazol-1-yl]-N-(propan-2-yl)acetamide]
IC50: 5.3 nM

COc1cc(-c2nc(-c3ccc(CCN4CCOCC4)cc3)cn2CC(=O)NC(C)C)ccn1 [Example A-41, 2-[2-(2-methoxypyridin-4-yl)-4-{4-[2-(morpholin-4-yl)ethyl]phenyl}-1H-imidazol-1-yl]-N-(propan-2-yl)acetamide]
IC50: 100 to 1000 nM

CC(C)NC(=O)Cc1nc(-c2ccc(CCN3CCOCC3)cc2)nn1-c1cccc(Cl)c1 [Example C-21, 2-[1-(3-chlorophenyl)-3-{4-[2-(morpholin-4-yl)ethyl]phenyl}-1H-1,2,4-triazol-5-yl]-N-(propan-2-yl)acetamide]
IC50: 14 nM

COc1cccc(-c2nc(-c3ccc(CCN4CCOCC4)cc3)c(C)n2CC(=O)NC(C)C)c1 [Example A-36, 2-[2-(3-methoxyphenyl)-5-methyl-4-{4-[2-(morpholin-4-yl)ethyl]phenyl}-1H-imidazol-1-yl]-N-(propan-2-yl)acetamide]
IC50: 20 nM

CC(C)NC(=O)Cc1cc(-c2ccc(CCN3CCOCC3)cc2)nn1-c1cccc(Cl)c1 [Example C-05, 2-[1-(3-chlorophenyl)-3-{4-[2-(morpholin-4-yl)ethyl]phenyl}-1H-pyrazol-5-yl]-N-(propan-2-yl)acetamide]
IC50: 21 nM

CC(C)NC(=O)Cc1nn(-c2ccc(CCN3CC4(COC4)C3)cc2)c(=O)n1-c1cccc(Cl)c1 [Example D-61, 2-[4-(3-chlorophenyl)-1-{4-[2-(2-oxa-6-azaspiro[3.3]hept-6-yl)ethyl]phenyl}-5-oxo-4,5-dihydro-1H-1,2,4-triazol-3-yl]-N-(propan-2-yl)acetamide]
IC50: 10 to 100 nM

CC(C)NC(=O)Cn1cc(-c2ccc(CCN3CCC(O)C3)cc2)nc1-c1cccc(Cl)c1 (stereo not shown) [Example A-06, 2-[2-(3-chlorophenyl)-4-{4-[2-(3-hydroxypyrrolidin-1-yl)ethyl]phenyl}-1H-imidazol-1-yl]-N-(propan-2-yl)acetamide]
IC50: 10 to 100 nM

COc1cccc(-c2nc(-c3ccc(CCN4C5CCC4COC5)cn3)nn2CC(=O)NC(C)(C)C)c1 [Example B-07, N-tert-butyl-2-[5-(3-methoxyphenyl)-3-{5-[2-(3-oxa-8-azabicyclo[3.2.1]oct-8-yl)ethyl]pyridin-2-yl}-1H-1,2,4-triazol-1-yl]acetamide]
IC50: 4.3 nM

COc1cccc(-c2nc(-c3ccc(CCN4CC5(COC5)C4)cc3)nn2CC(=O)NC(C)C)c1 [Example B-42, 2-[5-(3-methoxyphenyl)-3-{4-[2-(2-oxa-6-azaspiro[3.3]hept-6-yl)ethyl]phenyl}-1H-1,2,4-triazol-1-yl]-N-(propan-2-yl)acetamide]
IC50: < 10 nM

COc1cccc(-c2nc(-c3ccc(CCN4CCN(C(C)=O)CC4)cc3)nn2CC(=O)NC(C)C)c1 [Example B-33, 2-[3-{4-[2-(4-acetylpiperazin-1-yl)ethyl]phenyl}-5-(3-methoxyphenyl)-1H-1,2,4-triazol-1-yl]-N-(propan-2-yl)acetamide]
IC50: 100 to 1000 nM

COc1cc(-n2c(CC(=O)NC(C)C)nn(-c3ccc(CCN4C5CCC4COC5)cn3)c2=O)ccc1F [Example D-38, 2-[4-(4-fluoro-3-methoxyphenyl)-1-{5-[2-(3-oxa-8-azabicyclo[3.2.1]oct-8-yl)ethyl]pyridin-2-yl}-5-oxo-4,5-dihydro-1H-1,2,4-triazol-3-yl]-N-(propan-2-yl)acetamide]
IC50: 10 to 100 nM

CC(C)NC(=O)Cc1oc(-c2ccc(CCN3CCCCC3)cc2)nc1-c1cccc(Cl)c1 [Example C-10, 2-[4-(3-chlorophenyl)-2-{4-[2-(piperidin-1-yl)ethyl]phenyl}-1,3-oxazol-5-yl]-N-(propan-2-yl)acetamide]
IC50: 6.5 nM

CC(C)(C)NC(=O)Cn1nc(-c2ccc(CCN3CCOCC3)cn2)nc1-c1cccc(Cl)c1 [Example B-11, N-tert-butyl-2-[5-(3-chlorophenyl)-3-{5-[2-(morpholin-4-yl)ethyl]pyridin-2-yl}-1H-1,2,4-triazol-1-yl]acetamide]
IC50: 5.1 nM

CC(C)NC(=O)Cn1cc(-c2ccc(CCN3CCCC(O)C3)cc2)nc1-c1cccc(Cl)c1 (stereo not shown) [Example A-05, 2-[2-(3-chlorophenyl)-4-{4-[2-(3-hydroxypiperidin-1-yl)ethyl]phenyl}-1H-imidazol-1-yl]-N-(propan-2-yl)acetamide]
IC50: 10 to 100 nM

CC(C)NC(=O)Cc1nn(-c2ccc(CCN3C4CCC3COC4)c(F)c2)c(=O)n1-c1cccc(Cl)c1 [Example D-21, 2-[4-(3-chlorophenyl)-1-{3-fluoro-4-[2-(3-oxa-8-azabicyclo[3.2.1]oct-8-yl)ethyl]phenyl}-5-oxo-4,5-dihydro-1H-1,2,4-triazol-3-yl]-N-(propan-2-yl)acetamide]
IC50: 7.5 nM

CC(C)NC(=O)Cc1nn(-c2ccc(CCN3CCC(F)CC3)cc2)c(=O)n1-c1cccc(Cl)c1 [Example D-57, 2-[4-(3-chlorophenyl)-1-{4-[2-(4-fluoropiperidin-1-yl)ethyl]phenyl}-5-oxo-4,5-dihydro-1H-1,2,4-triazol-3-yl]-N-(propan-2-yl)acetamide]
IC50: 10 to 100 nM

CC(C)(C)NC(=O)Cn1nc(-c2ccc(CCN3C4CCC3COC4)cn2)nc1-c1cccc(Cl)c1 [Example B-09, N-tert-butyl-2-[5-(3-chlorophenyl)-3-{5-[2-(3-oxa-8-azabicyclo[3.2.1]oct-8-yl)ethyl]pyridin-2-yl}-1H-1,2,4-triazol-1-yl]acetamide]
IC50: 2.2 nM
